Data from patent publication US10047096B2, “Substituted pyridobenzodiazepinone-derivatives and use thereof” (Bayer Pharma Aktiengesellschaft, priority 2014, dated 2018).

Molecular target: human PDGFRβ (Homo sapiens (Human), UniProt P09619)
Assay: PDGFRβ kinase assay (PDGFRβ-HTRF)
Format: biochemical
Conditions: 10 μM ATP; some mean values from multiple determinations
Description: The PDGFRβ-inhibitory activity of the inventive compounds was determined in the PDGFRβ-HTRF assay described hereinafter.
The kinase used was a recombinant fusion protein composed of N-terminal GST and a C-terminal fragment of human PDGFRβ (amino acids R561-L1106), expressed in baculovirus-infected insect cells (Sf9) and purified by affinity chromatography (from ProQinase GmbH, Freiburg, Germany). The substrate used for the kinase reaction was biotinylated poly-Glu,Tyr (4:1) copolymer (from Cisbio Bioassays, Codolet, France).
For the assay, 50 nl of a 100-fold concentrated solution of the test substance in DMSO was pipetted into a black “low-volume 384 well” microtitre plate (from Greiner Bio-One, Frickenhausen, Germany), then 2 μl of a solution of PDGFRβ in assay buffer [50 mM HEPES/NaOH pH 7.5, 10 mM MgCl2, 2.5 mM dithiothreitol, 0.01% (v/v) Triton-X100 (from Sigma)] was added and the mixture was incubated for 15 min, in order to enable preliminary binding of the substance to the enzyme before the kinase reaction. […] The resulting mixture was incubated at 22° C. for 1 h to allow formation of a complex of the biotinylated phosphorylated substrate and the detection reagents.
Subsequently, the amount of the phosphorylated substrate was evaluated by measuring the resonance energy transfer from the PT66-Eu chelate to the streptavidin-XL665. […] The IC50 values were calculated by a 4-parameter fit.

Sequence of human PDGFRβ (P09619 561-1106): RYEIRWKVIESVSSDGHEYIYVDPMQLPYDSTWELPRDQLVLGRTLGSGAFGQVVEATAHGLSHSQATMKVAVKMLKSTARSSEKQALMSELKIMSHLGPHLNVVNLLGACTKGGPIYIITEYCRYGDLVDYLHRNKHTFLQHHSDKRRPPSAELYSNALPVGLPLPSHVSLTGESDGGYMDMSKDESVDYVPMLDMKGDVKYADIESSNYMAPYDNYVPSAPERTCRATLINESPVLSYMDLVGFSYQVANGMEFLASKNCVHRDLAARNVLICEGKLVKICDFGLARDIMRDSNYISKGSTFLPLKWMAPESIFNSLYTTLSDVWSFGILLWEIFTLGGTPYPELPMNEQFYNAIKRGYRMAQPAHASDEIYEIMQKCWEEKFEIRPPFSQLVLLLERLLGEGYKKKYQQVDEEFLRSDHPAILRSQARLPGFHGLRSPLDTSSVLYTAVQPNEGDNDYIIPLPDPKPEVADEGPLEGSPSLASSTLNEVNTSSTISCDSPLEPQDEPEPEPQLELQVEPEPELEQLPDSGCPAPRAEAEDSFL

SMILES | IC50
Cc1cc(F)c(Nc2ccnc3c2C(=O)Nc2cc(C(=O)N4CCC(CCO)C4)ccc2N3)cc1O (racemic) [Example 181, rac-4-[(2-Fluoro-5-hydroxy-4-methylphenyl)amino]-8-{[3-(2-hydroxyethyl)pyrrolidin-1-yl]carbonyl}-6,11-dihydro-5H-pyrido[2,3-b][1,5]benzodiazepin-5-one] | 8.91 nM
Cc1cc(F)c(Nc2ccnc3c2C(=O)Nc2cc(CN4CCC(N(C)C)CC4)ccc2N3)cc1O [Example 211, 8-{[4-(Dimethylamino)piperidin-1-yl]methyl}-4-[(2-fluoro-5-hydroxy-4-methylphenyl)amino]-6,11-dihydro-5H-pyrido[2,3-b][1,5]benzodiazepin-5-one] | 1.94 nM
Cc1cc(F)c(Nc2ccnc3c2C(=O)Nc2cc(CNC[C@@H]4CCN(C(=O)OC(C)(C)C)C[C@H]4O)ccc2N3)cc1O [Example 176, tert-Butyl (3S,4S)-4-{[({4-[(2-fluoro-5-hydroxy-4-methylphenyl)amino]-5-oxo-6,11-dihydro-5H-pyrido[2,3-b][1,5]benzodiazepin-8-yl}methyl)amino]methyl}-3-hydroxypiperidine-1-carboxylate] | 3.45 nM
Cc1ccc(O)cc1Nc1ccnc2c1C(=O)Nc1cc(CNCCN3CCCCCC3)ccc1N2 [Example 111] | 4.03 nM
Cc1ccc(O)cc1Nc1ccnc2c1C(=O)Nc1cc(CNCCN3CCCC3=O)ccc1N2 [Example 141] | 3.48 nM
Cc1ccc(O)cc1Nc1ccnc2c1C(=O)Nc1cc(CNC3CCC3)ccc1N2 [Example 20, 8-[(Cyclobutylamino)methyl]-4-[(5-hydroxy-2-methylphenyl)amino]-6,11-dihydro-5H-pyrido[2,3-b][1,5]benzodiazepin-5-one] | 2.89 nM
Cc1ccc(O)cc1Nc1ccnc2c1C(=O)Nc1cc(CNCC(N)=O)ccc1N2 [Example 16, N^2-({4-[(5-Hydroxy-2-methylphenyl)amino]-5-oxo-6,11-dihydro-5H-pyrido[2,3-b][1,5]benzodiazepin-8-yl}methyl)glycinamide] | 7.05 nM
Cc1cc(F)c(Nc2ccnc3c2C(=O)Nc2cc(CN4CC[C@H](N)C4)ccc2N3)cc1O [Example 215, 8-{[(3S)-3-Aminopyrrolidin-1-yl]methyl}-4-[(2-fluoro-5-hydroxy-4-methylphenyl)amino]-6,11-dihydro-5H-pyrido[2,3-b][1,5]benzodiazepin-5-one] | 2.06 nM
N#Cc1ccc2c(c1)NC(=O)c1c(Nc3cc(O)c(F)c(F)c3)ccnc1N2 [Example 8, 4-[(3,4-Difluoro-5-hydroxyphenyl)amino]-5-oxo-6,11-dihydro-5H-pyrido[2,3-b][1,5]benzodiazepine-8-carbonitrile] | 4.76 nM
Cc1cc(F)c(Nc2ccnc3c2C(=O)Nc2cc(CN4CCNCC4)ccc2N3)cc1O [Example 197, 4-[(2-Fluoro-5-hydroxy-4-methylphenyl)amino]-8-(piperazin-1-ylmethyl)-6,11-dihydro-5H-pyrido[2,3-b][1,5]benzodiazepin-5-one] | 0.861 nM
Cc1cc(F)c(Nc2ccnc3c2C(=O)Nc2cc(CN4CCN(CCO)CC4)ccc2N3)cc1O [Example 47, 4-[(2-Fluoro-5-hydroxy-4-methylphenyl)amino]-8-{[4-(2-hydroxyethyl)piperazin-1-yl]methyl}-6,11-dihydro-5H-pyrido[2,3-b][1,5]benzodiazepin-5-one] | 3.67 nM
Cc1ccc(O)cc1Nc1ccnc2c1C(=O)Nc1cc(CNCCN3CCC(C)CC3)ccc1N2 [Example 110] | 3.29 nM
Cc1cc(F)c(Nc2ccnc3c2C(=O)Nc2cc(C(=O)N4CCCC(CCO)C4)ccc2N3)cc1O (racemic) [Example 179, rac-4-[(2-Fluoro-5-hydroxy-4-methylphenyl)amino]-8-{[3-(2-hydroxyethyl)piperidin-1-yl]carbonyl}-6,11-dihydro-5H-pyrido[2,3-b][1,5]benzodiazepin-5-one] | 14.6 nM
Cc1cc(F)c(Nc2ccnc3c2C(=O)Nc2cc(CN4CCCC(OCC(F)(F)F)C4)ccc2N3)cc1O (racemic) [Example 89, rac-4-[(2-Fluoro-5-hydroxy-4-methylphenyl)amino]-8-{[3-(2,2,2-trifluoroethoxy)piperidin-1-yl]methyl}-6,11-dihydro-5H-pyrido[2,3-b][1,5]benzodiazepin-5-one] | 3.51 nM
Cc1cc(F)c(Nc2ccnc3c2C(=O)Nc2cc(C(=O)N4C[C@H](O)C[C@H]4CO)ccc2N3)cc1O [Example 160, 4-[(2-Fluoro-5-hydroxy-4-methylphenyl)amino]-8-{[(2S,4R)-4-hydroxy-2-(hydroxymethyl)pyrrolidin-1-yl]carbonyl}-6,11-dihydro-5H-pyrido[2,3-b][1,5]benzodiazepin-5-one] | 7.25 nM
N#Cc1ccc2c(c1)NC(=O)c1c(Nc3cc(O)ccc3Cl)ccnc1N2 [Example 36, 4-[(2-Chloro-5-hydroxyphenyl)amino]-5-oxo-6,11-dihydro-5H-pyrido[2,3-b][1,5]benzodiazepine-8-carbonitrile] | 20.1 nM
Cc1ccc(O)cc1Nc1ccnc2c1C(=O)Nc1cc(CNC(C)c3ccco3)ccc1N2 (centres unmarked) [Example 132] | 2.89 nM
Cc1cc(F)c(Nc2ccnc3c2C(=O)Nc2cc(CN4CCC(O)CC4)ccc2N3)cc1O [Example 45, 4-[(2-Fluoro-5-hydroxy-4-methylphenyl)amino]-8-[(4-hydroxypiperidin-1-yl)methyl]-6,11-dihydro-5H-pyrido[2,3-b][1,5]benzodiazepin-5-one] | 0.928 nM
Cc1ccc(O)cc1Nc1ccnc2c1C(=O)Nc1cc(CNCC(O)CO)ccc1N2 (centres unmarked) [Example 148] | 1.52 nM
Cc1ccc(O)cc1Nc1ccnc2c1C(=O)Nc1cc(CNCCO)ccc1N2 [Example 24, 8-{[(2-Hydroxyethyl)amino]methyl}-4-[(5-hydroxy-2-methylphenyl)amino]-6,11-dihydro-5H-pyrido[2,3-b][1,5]benzodiazepin-5-one] | 4.74 nM
Cc1cc(F)c(Nc2ccnc3c2C(=O)Nc2cc(CNC(C)C4CCCCC4)ccc2N3)cc1O (racemic) [Example 77, rac-8-{[(1-Cyclohexylethyl)amino]methyl}-4-[(2-fluoro-5-hydroxy-4-methylphenyl)amino]-6,11-dihydro-5H-pyrido[2,3-b][1,5]benzodiazepin-5-one] | 4.9 nM
Cc1ccc(O)cc1Nc1ccnc2c1C(=O)Nc1cc(CNCC(C)Cn3cccn3)ccc1N2 (centres unmarked) [Example 114] | 1.83 nM
Cc1ccc(O)cc1Nc1ccnc2c1C(=O)Nc1cc(CNc3ccc4[nH]cnc4c3)ccc1N2 [Example 104] | 12.2 nM

The remaining compounds from weak to strong by IC50, led by results:

IC50 | SMILES
14.6 nM | Cc1ccc(O)cc1Nc1ccnc2c1C(=O)Nc1cc(CNc3ccn(C)n3)ccc1N2 [Example 105]
10.7 nM | Cc1cc(F)c(Nc2ccnc3c2C(=O)Nc2cc(C(=O)N4CCC(CCO)CC4)ccc2N3)cc1O [Example 161, 4-[(2-Fluoro-5-hydroxy-4-methylphenyl)amino]-8-{[4-(2-hydroxyethyl)piperidin-1-yl]carbonyl}-6,11-dihydro-5H-pyrido[2,3-b][1,5]benzodiazepin-5-one]
5.43 nM | Cc1ccc(O)cc1Nc1ccnc2c1C(=O)Nc1cc(C#N)ccc1N2 [Example 1, 4-[(5-Hydroxy-2-methylphenyl)amino]-5-oxo-6,11-dihydro-5H-pyrido[2,3-b][1,5]benzodiazepine-8-carbonitrile]
5.17 nM | Cc1ccc(O)cc1Nc1ccnc2c1C(=O)Nc1cc(CNC3(C)CCS(=O)(=O)C3)ccc1N2 (centres unmarked) [Example 98]
4.75 nM | COCCOCCCNCc1ccc2c(c1)NC(=O)c1c(Nc3cc(O)ccc3C)ccnc1N2 [Example 116]
4.3 nM | Cc1cc(F)c(Nc2ccnc3c2C(=O)Nc2cc(CN(C)C)ccc2N3)cc1O [Example 33, 8-[(Dimethylamino)methyl]-4-[(2-fluoro-5-hydroxy-4-methylphenyl)amino]-6,11-dihydro-5H-pyrido[2,3-b][1,5]benzodiazepin-5-one]
3.99 nM | COCCCNCc1ccc2c(c1)NC(=O)c1c(Nc3cc(O)ccc3C)ccnc1N2 [Example 129]
3.6 nM | Cc1ccc(O)cc1Nc1ccnc2c1C(=O)Nc1cc(CNC3CCS(=O)(=O)C3)ccc1N2 (centres unmarked) [Example 113]
3.58 nM | Cc1ccc(O)cc1Nc1ccnc2c1C(=O)Nc1cc(CNC3CCCNC3=O)ccc1N2 (centres unmarked) [Example 139]
2.97 nM | Cc1ccc(O)cc1Nc1ccnc2c1C(=O)Nc1cc(CNC3CCOC3)ccc1N2 (centres unmarked) [Example 99]
2.45 nM | Cc1ccc(O)cc1Nc1ccnc2c1C(=O)Nc1cc(CNCCn3ccnn3)ccc1N2 [Example 97]
2.33 nM | CCC(CC)NCc1ccc2c(c1)NC(=O)c1c(Nc3cc(O)ccc3C)ccnc1N2 [Example 155]
2.1 nM | COc1cccc(CNCc2ccc3c(c2)NC(=O)c2c(Nc4cc(O)ccc4C)ccnc2N3)c1 [Example 96]
1.8 nM | Cc1ccc(O)cc1Nc1ccnc2c1C(=O)Nc1cc(CN3CCCC3)ccc1N2 [Example 40, 4-[(5-Hydroxy-2-methylphenyl)amino]-8-(pyrrolidin-1-ylmethyl)-6,11-dihydro-5H-pyrido[2,3-b][1,5]benzodiazepin-5-one]
0.962 nM | CCCCN(CC)Cc1ccc2c(c1)NC(=O)c1c(Nc3cc(O)c(C)cc3F)ccnc1N2 [Example 53, 8-{[Butyl(ethyl)amino]methyl}-4-[(2-fluoro-5-hydroxy-4-methylphenyl)amino]-6,11-dihydro-5H-pyrido[2,3-b][1,5]benzodiazepin-5-one]
